One assay has as its system tubulin. The experiment in a line: In vitro tubulin polymerization by turbidimetry (It50). The class given is biochemical. The settings on record: turbidimetry at 350 nm, 37 °C; for Effect on in vitro tubulin polymerization: result in words; for It50 (time required to reach 50% of the polymerization): control 16.6 ± 1.0. As for the experimental part:
Figure 3 also includes polymerization curves in the presence of CA-4, AmCA-4 and paclitaxel. This test was also performed using paclitaxel, a microtubule stabilizing agent, as a control for the complete formation of microtubules (see Figure 3).

Another assay has as its system A-549 cells. Nature of the assay: Effect on the cellular microtubule network (immunofluorescence). Type of assay: cell-based, human. The protocol: The effect on the cellular microtubule network of CA-4 derivatives was studied for compounds 1, 3.7 (L-Thr-OMe), 3.8 (L-Tyr-OMe), 4.2 (L-Val) and 4.3 (L-Leu), which were those accumulating more cells in the G2/M phase. Thus, A-549 cells were incubated for 24 h in the presence of the above compounds and CA-4 at the concentrations indicated in Figure 4.
The effect of some derivatives on the cellular microtubule network were also studied on A-549 cells. The selected compounds were 7.1 (Fmoc-Gly) (0.5 μM), 8.1 (Gly) (2 μM), 8.2 (L-Ala) (3 μM) and 10.1 (D-Val) (40 μM), which were those exerting a higher effect on the cell cycle.
For immunofluorescence microscopy of the microtubule network, 10^6 cells were plated on cover glass and incubated with the different drugs. Cells were then fixed in 3.7% formaldehyde (in PBS pH 7.4) for 20 min at room temperature and permeabilized with PBS-Triton X-100 0.5% for 10 min at room temperature. Direct immunostaining was carried out for 2 h at room temperature with a primary FITC-conjugated anti-α-tubulin antibody (dilution 1:400 in PBS-BSA 1% from a 1 mg/mL solution; monoclonal antibody, clone DM1A; Sigma-Aldrich, Darmstadt, Germany.). Next, cells were incubated for 45 min at room temperature in darkness with secondary Alexa Fluor 488-conjugated antibodies (dilution 1:200 each from 1.5 mg/mL; Molecular Probe, France). Then, cells were washed in PBS and cover glasses were mounted with a drop of ProLong® antifade solution (Invitrogen). The cytoskeleton was imaged by a confocal laser scanning microscope (CLSM) Leica SP5 with a Leica inverted microscope, equipped with a Plan-Apochromat 63× oil immersion objective (NA = 1.4). Each image was recorded with the CLSM’s spectral mode selecting specific domains of the emission spectrum. The FITC fluorophore was excited at 488 nm with an argon laser, and its fluorescence emission was collected between 496 nm and 535 nm.

Where “and” joins values, the source holds several entries; their conditions need not be identical. Equal values may be shown once. Entries after “also recorded” stand apart in the source; their conditions may differ.

With `COc1ccc(/C=C\c2cc(OC)c(OC)c(OC)c2)cc1N` [AmCA-4, 3′-aminocombretastatin A-4], the “Effect on in vitro tubulin polymerization” value with tubulin was “almost no absorbance is detected”. Moreover, the “Effect on the microtubule network” value with A-549 cells (A-549, 24 h, 50 nM) was “total depolymerization of microtubules”.

On to `COc1ccc(/C=C\c2cc(OC)c(OC)c(OC)c2)cc1NC(=O)[C@@H](N)C(C)O` (some centres unmarked) [Compound 8.7], for which, in the assay on tubulin, the “It50 (time required to reach 50% of the polymerization)” value is 65 min and 65 ± 7 min; the “Effect on in vitro tubulin polymerization” value is given as “able to delay the polymerization process; also recorded: partial inhibitors of the polymerization process; also recorded: partial inhibitors of the in vitro polymerization of tubulin”.

Take `COc1ccc(/C=C\c2cc(OC)c(OC)c(OC)c2)cc1O` [CA-4, combretastatin A-4]: in the assay on tubulin, the “Effect on in vitro tubulin polymerization” value is recorded as “almost no absorbance is detected”. Moreover, the “Effect on the microtubule network” value in the assay with A-549 cells (A-549, 24 h, 50 nM) is “greatly depolymerizes microtubules”.

For the molecule `COc1ccc(/C=C\c2cc(OC)c(OC)c(OC)c2)cc1NC(=O)[C@@H](N)Cc1ccccc1` [Compound 8.5], the “Effect on the microtubule network” value with A-549 cells (A-549, 0.5 μM) is listed as “much less active”.

Consider `COc1ccc(/C=C\c2cc(OC)c(OC)c(OC)c2)cc1NC(=O)[C@H](C)N` [Compound 8.2], for which, in the assay with tubulin, the “It50 (time required to reach 50% of the polymerization)” value amounted to 48 ± 5 min and the “Effect on in vitro tubulin polymerization” value is given as “able to delay the polymerization process; also recorded: partial inhibitors of the polymerization process; also recorded: partial inhibitors of the in vitro polymerization of tubulin”. In addition, the “Effect on the microtubule network” value in the assay with A-549 cells (A-549, 3 μM) is on record as “almost total depolymerization of the microtubule network”.

Turning to `COc1ccc(/C=C\c2cc(OC)c(OC)c(OC)c2)cc1NC(=O)CNC(=O)OCC1c2ccccc2-c2ccccc21` [Compound 7.1], the “It50 (time required to reach 50% of the polymerization)” value in the assay with tubulin is reported as 16 ± 3 min. Moreover, the “Effect on the microtubule network” value in the assay on A-549 cells (A-549, 0.5 μM) is “almost total depolymerization of the microtubule network”.

With `COc1ccc(/C=C\c2cc(OC)c(OC)c(OC)c2)cc1NC(=O)CN` [Compound 8.1], the “It50 (time required to reach 50% of the polymerization)” value in the assay with tubulin worked out at 18.5 ± 2.1 min. The “Effect on the microtubule network” value with A-549 cells (A-549, 2 μM) is given as “almost total depolymerization of the microtubule network”.

For the origin of these results see PMC7037732, “Synthesis of Combretastatin A-4 and 3′-Aminocombretastatin A-4 derivatives with Aminoacid Containing Pendants and Study of their Interaction with Tubulin and as Downregulators of the VEGF, hTERT and c-Myc Gene Expression” (Molecules, 2020).
